The numbers were not newly measured in PMC9069326 (RSC Advances, 2019), which cites them from elsewhere.

In this series the target is Gal-3 (Homo sapiens, UniProt P17931). Particulars: cited from earlier work.
Chain of Gal-3 (P17931 whole entry, species assumed): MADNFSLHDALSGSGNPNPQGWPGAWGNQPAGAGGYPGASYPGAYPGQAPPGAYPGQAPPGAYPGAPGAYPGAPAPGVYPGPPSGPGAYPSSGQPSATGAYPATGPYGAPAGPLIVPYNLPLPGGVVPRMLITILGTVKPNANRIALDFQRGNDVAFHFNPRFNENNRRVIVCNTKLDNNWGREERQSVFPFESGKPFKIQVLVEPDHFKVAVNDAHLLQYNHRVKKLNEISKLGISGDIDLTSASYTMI

For `O=C[C@H](O)[C@@H](O)[C@@H](O)[C@H](O)CO` [Gal, β-Galactose], the Kd is roughly 10 mM.
With Galβ1-4GlcNAc [LacNAc], the equilibrium dissociation constant (Kd) is 0.07 mM.

As a reminder, the Kd is the concentration at which binding is half-saturated.
